Experimental data published in ChEMBL document CHEMBL4177715, “Synthesis of radioiodinated probes targeted toward matrix metalloproteinase-12” (Bioorg Med Chem Lett, 2018).

Tests used:
Collagenase 3 = Collagenase 3 (Homo sapiens, UniProt P45452); test: Inhibition of recombinant human MMP13 using Mca-Pro-Leu-Gly-Leu-Dpa(Dnp)-Ala-Arg-NH2 as substrate after 30 mins by fluorescence spectrometry
[1] = target: Macrophage metalloelastase (Homo sapiens, UniProt P39900); test: Inhibition of recombinant human MMP12 using Mca-Pro-Leu-Gly-Leu-Dpa(Dnp)-Ala-Arg-NH2 as substrate after 30 mins by fluorescence spectrometry
Macrophage metalloelastase, sequence (P39900 whole entry): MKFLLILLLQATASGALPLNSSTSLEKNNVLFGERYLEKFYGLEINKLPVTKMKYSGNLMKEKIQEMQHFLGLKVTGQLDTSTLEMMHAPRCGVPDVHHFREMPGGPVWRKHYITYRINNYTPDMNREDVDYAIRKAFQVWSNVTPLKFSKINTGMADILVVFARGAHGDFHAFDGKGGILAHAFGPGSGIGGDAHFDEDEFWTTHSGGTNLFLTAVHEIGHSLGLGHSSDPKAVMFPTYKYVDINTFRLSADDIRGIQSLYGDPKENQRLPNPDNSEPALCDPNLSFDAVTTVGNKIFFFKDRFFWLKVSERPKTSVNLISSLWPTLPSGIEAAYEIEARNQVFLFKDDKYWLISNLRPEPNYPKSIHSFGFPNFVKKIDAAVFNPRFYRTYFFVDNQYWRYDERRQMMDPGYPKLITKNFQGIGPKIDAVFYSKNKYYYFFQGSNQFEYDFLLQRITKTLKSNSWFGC

IC50 (Collagenase 3) [nM] | IC50 [1] [nM] | Structure (SMILES)
51 | 11 | CC(C)[C@H](NS(=O)(=O)c1ccc2c(c1)oc1ccc(NC(=O)Oc3ccc(Br)cc3)cc12)C(=O)O
> 2000 | 502 | CC(C)[C@H](NS(=O)(=O)c1ccc2c(c1)oc1ccc(NC(=O)c3ccc(I)cc3)cc12)C(=O)O
69 | 8.5 | CC(C)[C@H](NS(=O)(=O)c1ccc2c(c1)oc1ccc(NC(=O)Oc3ccc(I)cc3)cc12)C(=O)O
403 | 297 | CC(C)[C@H](NS(=O)(=O)c1ccc2c(c1)oc1ccc(NS(=O)(=O)c3ccc(I)cc3)cc12)C(=O)O
65 | – | CC(C)[C@H](NS(=O)(=O)c1ccc2c(c1)oc1ccc(NC(=O)Oc3ccc(F)cc3)cc12)C(=O)O
